This is an account of results in patent US8461329B2, “Isoquinoline derivative” (Taisho Pharmaceutical Co., Ltd., priority 2008, dated 2013).

This assay concerns the target T1, CRTH2 (KB8 cells) (Homo sapiens, UniProt Q9Y5Y4).
T1 construct: host or cells: KB8 cells (human CRTH2 expression cell)
T1 sequence (Q9Y5Y4 1-395): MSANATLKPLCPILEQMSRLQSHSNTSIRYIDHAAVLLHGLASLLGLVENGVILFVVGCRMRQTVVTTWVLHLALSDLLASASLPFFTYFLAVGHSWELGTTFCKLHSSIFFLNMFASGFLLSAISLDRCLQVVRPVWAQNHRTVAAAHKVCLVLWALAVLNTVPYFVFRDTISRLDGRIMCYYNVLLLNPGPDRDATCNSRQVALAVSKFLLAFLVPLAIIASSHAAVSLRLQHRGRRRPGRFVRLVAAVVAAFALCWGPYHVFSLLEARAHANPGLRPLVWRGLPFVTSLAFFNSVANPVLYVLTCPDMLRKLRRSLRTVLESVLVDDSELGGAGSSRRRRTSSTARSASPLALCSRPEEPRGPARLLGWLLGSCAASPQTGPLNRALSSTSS
Nature of the assay: CRTH2 antagonist test (PGD2-induced intracellular calcium ion concentration increase in KB8 cells). Format: cell-based. As to conditions: PGD2 final concentration 100 nM, Fluo-4-AM fluorescence, read-out: antagonist activity (IC50 value, inhibition of calcium ion concentration increase). How it is done:
The antagonist activity of the compound of the present invention was considered by using the intracellular calcium ion concentration increase reaction induced when the prostaglandin D2 was added to KB8 cells.
Fluo-4-AM (4-(6-acetoxymethoxy-2,7-difluoro-3-oxo-9-xanthenyl)-4′-methyl-2,2′-(ethylenedioxy)dianilide-N,N,N′,N′-tetraacetic acid tetrakis(acetoxymethyl) ester (SIGMA, final concentration: 1 μM) was added to KB8 cells, and the cells were incubated at 37° C. for 30 min, washed with phosphate buffer (Invitrogen), and then suspended in Hank's balanced salt solution (Invitrogen)) containing a reaction buffer solution (10 mM HEPES (Invitrogen), and 1 mM calcium chloride (SIGMA). The suspension was dispensed in a 96 well plate (Nunc) so that 2×10^5 cells/well were placed, and the compound of the present invention and PGD2 (final concentration: 100 nM) were added. The fluorescence intensity thereof was measured over time by using FDSS6000 (Hamamatsu Photonics), and thus the maximum fluorescence intensity value “d” was obtained. The same procedure was carried out in the absence of the compound, and the maximum fluorescence intensity value “e” was obtained; and the same procedure was carried out in the absence of the compound and […], and the maximum fluorescence intensity value “f” was obtained.
The calcium ion concentration increase inhibition rate of a compound was calculated by the following calculation formula: Inhibitory rate(%)=[1−(d−f)/(e−f)]×100
That is to say, by using calcium ion concentration increase inhibitory rates of compounds to be tested having various concentrations, the IC50 value was calculated according to a dose-dependent inhibition curve analyzed by using XLfit (IDBS) as a data analysis software, and the value was defined as an indicator of the antagonist activity. In Tables, A denotes an inhibitory activity showing the IC50 value of less than 50 nM; B denotes an inhibitory activity showing the IC50 value of 50 nM or greater and less than 500 nM; C denotes an inhibitory activity showing the IC50 value of 500 nM or greater and less than 1000 nM; and D denotes an inhibitory activity showing the IC50 value of 1000 nM or greater.
With `O=C(O)Cc1cnc(C(=O)c2ccc(NC(=O)c3ccccc3Cl)cc2)c2ccccc12` [Example 24], the IC50 was no less than 1000 nM.

In the case of `O=C(O)Cc1cnc(C(=O)c2ccc(NC(=O)c3ccccc3Br)cc2)c2ccccc12` [Example 25], the IC50 is no less than 1000 nM.

Regarding `Cc1ccccc1C(=O)Nc1ccc(C(=O)c2ncc(CC(=O)O)c3ccccc23)cc1` [Example 26], the IC50 lay in the range of 50 to 500 nM.

With `O=C(O)Cc1cnc(C(=O)c2ccc(NC(=O)c3ccc(F)cc3)cc2)c2ccccc12` [Example 28], the IC50 was less than 50 nM.

Turning to `O=C(O)Cc1cnc(C(=O)c2ccc(NC(=O)c3cccc(Cl)c3Cl)cc2)c2ccccc12` [Example 30], the IC50 was 500 to 1000 nM.

As for `O=C(O)Cc1cnc(C(=O)c2ccc(NC(=O)c3ccc(Cl)c(F)c3)cc2)c2ccccc12` [Example 31], the IC50 was less than 50 nM.

As for `O=C(O)Cc1cnc(C(=O)c2ccc(NC(=O)c3ccc(Br)cc3)cc2)c2ccccc12` [Example 32], the IC50 was less than 50 nM.

On to `O=C(O)Cc1cnc(C(=O)c2ccc(NC(=O)c3c(Cl)cccc3Cl)cc2)c2ccccc12` [Example 33], for which the IC50 is no less than 1000 nM.

With `O=C(O)Cc1cnc(C(=O)c2ccc(NC(=O)c3ccc(F)c(F)c3)cc2)c2ccccc12` [Example 35], the IC50 is less than 50 nM.

Take `O=C(O)Cc1cnc(C(=O)c2ccc(NC(=O)c3c(F)cccc3Cl)cc2)c2ccccc12` [Example 36]: the IC50 is no less than 1000 nM.

In the case of `O=C(O)Cc1cnc(C(=O)c2ccc(NC(=O)c3cc(Cl)cc(Cl)c3)cc2)c2ccccc12` [Example 37], the IC50 was less than 50 nM.

As to `O=C(O)Cc1cnc(C(=O)c2ccc(NC(=O)c3ccccc3)cc2)c2ccccc12` [Example 38], the IC50 was less than 50 nM.

In the case of `O=C(O)Cc1cnc(C(=O)c2ccc(NC(=O)c3ccccc3F)cc2)c2ccccc12` [Example 39], the IC50 is 500 to 1000 nM.

On to `COc1ccccc1C(=O)Nc1ccc(C(=O)c2ncc(CC(=O)O)c3ccccc23)cc1` [Example 40], for which the IC50 is no less than 1000 nM.

Consider `O=C(O)Cc1cnc(C(=O)c2ccc(NC(=O)c3ccc(Cl)cc3Cl)cc2)c2ccccc12` [Example 41], for which the IC50 is 50 to 500 nM.

As for `O=C(O)Cc1cnc(C(=O)c2ccc(NC(=O)c3cc(F)ccc3Cl)cc2)c2ccccc12` [Example 42], the IC50 was in the range of 500 to 1000 nM.

As to `O=C(O)Cc1cnc(C(=O)c2ccc(NC(=O)c3cc(Cl)ccc3Cl)cc2)c2ccccc12` [Example 43], the IC50 was 50 to 500 nM.

On to `Cc1ccc(C)c(C(=O)Nc2ccc(C(=O)c3ncc(CC(=O)O)c4ccccc34)cc2)c1` [Example 44], for which the IC50 is 50 to 500 nM.

`O=C(O)Cc1cnc(C(=O)c2ccc(NC(=O)c3cc(Cl)cc(Cl)c3Cl)cc2)c2ccccc12` [Example 45]: the IC50 was in the range of 50 to 500 nM.

With `O=C(O)Cc1cnc(C(=O)c2ccc(NC(=O)c3cccc4ccccc34)cc2)c2ccccc12` [Example 46], the IC50 lay in the range of 50 to 500 nM.

As to `O=C(O)Cc1cnc(C(=O)c2ccc(NC(=O)c3ccc(F)cc3Cl)cc2)c2ccccc12` [Example 47], the IC50 lay within 500 to 1000 nM.

In the case of `O=C(O)Cc1cnc(C(=O)c2ccc(NC(=O)c3c(Cl)cc(Cl)cc3Cl)cc2)c2ccccc12` [Example 48], the IC50 is no less than 1000 nM.

As for `Cc1ccc(Cl)c(C(=O)Nc2ccc(C(=O)c3ncc(CC(=O)O)c4ccccc34)cc2)c1F` [Example 49], the IC50 is no less than 1000 nM.

For the compound `O=C(O)Cc1cnc(C(=O)c2ccc(NC(=O)c3ccncc3)cc2)c2ccccc12` [Example 51], the IC50 is no less than 1000 nM.

In the case of `O=C(O)Cc1cnc(C(=O)c2ccc(NC(=O)c3ccc(F)c(F)c3F)cc2)c2ccccc12` [Example 52], the IC50 was 50 to 500 nM.

As to `O=C(O)Cc1cnc(C(=O)c2ccc(NC(=O)CC34CC5CC(CC(C5)C3)C4)cc2)c2ccccc12` [Example 53], the IC50 was 50 to 500 nM.

As to `O=C(O)Cc1cnc(C(=O)c2ccc(NC(=O)c3ccc4c(c3)CCCC4)cc2)c2ccccc12` [Example 54], the IC50 is less than 50 nM.

Take `O=C(O)Cc1cnc(C(=O)c2ccc(NC(=O)c3ncccn3)cc2)c2ccccc12` [Example 55]: the IC50 was 500 to 1000 nM.

Consider `O=C(O)Cc1cnc(C(=O)c2ccc(NC(=O)c3cc(F)c(Cl)cc3Cl)cc2)c2ccccc12` [Example 56], for which the IC50 lay in the range of 50 to 500 nM.

Consider `O=C(O)Cc1cnc(C(=O)c2ccc(NC(=O)c3cscn3)cc2)c2ccccc12` [Example 58], for which the IC50 is no less than 1000 nM.

As for `O=C(O)Cc1cnc(C(=O)c2ccc(NC(=O)C3(c4ccc(Cl)cc4)CCCC3)cc2)c2ccccc12` [Example 59], the IC50 lay within 50 to 500 nM.

On to `O=C(O)Cc1cnc(C(=O)c2ccc(NC(=O)C3Cc4ccccc4C3)cc2)c2ccccc12` [Example 60], for which the IC50 lay within 50 to 500 nM.

Take `Cc1cc(F)ccc1C(=O)Nc1ccc(C(=O)c2ncc(CC(=O)O)c3ccccc23)cc1` [Example 61]: the IC50 fell in the range of 50 to 500 nM.

Turning to `Cc1ccc(F)cc1C(=O)Nc1ccc(C(=O)c2ncc(CC(=O)O)c3ccccc23)cc1` [Example 62], the IC50 was 50 to 500 nM.

Consider `COc1cc(C(=O)Nc2ccc(C(=O)c3ncc(CC(=O)O)c4ccccc34)cc2)cc(OC)c1OC` [Example 63], for which the IC50 lay in the range of 50 to 500 nM.

As for `C=Cc1ccc(C(=O)Nc2ccc(C(=O)c3ncc(CC(=O)O)c4ccccc34)cc2)cc1` [Example 64], the IC50 is less than 50 nM.

For `CC(C)=CC(=O)Nc1ccc(C(=O)c2ncc(CC(=O)O)c3ccccc23)cc1` [Example 65], the IC50 was 500 to 1000 nM.

As for `O=C(O)Cc1cnc(C(=O)c2ccc(NC(=O)c3cccnc3)cc2)c2ccccc12` [Example 66], the IC50 is no less than 1000 nM.

On to `O=C(O)Cc1cnc(C(=O)c2ccc(NC(=O)c3ccc4ncccc4c3)cc2)c2ccccc12` [Example 67], for which the IC50 lay within 50 to 500 nM.

For `Cc1ccc(S(=O)(=O)NCC(=O)Nc2ccc(C(=O)c3ncc(CC(=O)O)c4ccccc34)cc2)cc1` [Example 68], the IC50 lay within 50 to 500 nM.

As to `O=C(O)Cc1cnc(C(=O)c2ccc(NC(=O)c3cnccn3)cc2)c2ccccc12` [Example 69], the IC50 is no less than 1000 nM.

In the case of `O=C(O)Cc1cnc(C(=O)c2ccc(NC(=O)c3cccc(Cl)c3F)cc2)c2ccccc12` [Example 70], the IC50 was 50 to 500 nM.

Take `O=C(O)Cc1cnc(C(=O)c2ccc(NC(=O)c3cccc(F)c3)cc2)c2ccccc12` [Example 71]: the IC50 lay within 50 to 500 nM.

`COc1cccc(C(=O)Nc2ccc(C(=O)c3ncc(CC(=O)O)c4ccccc34)cc2)c1` [Example 72]: the IC50 was less than 50 nM.

Take `Cc1cccc(C(=O)Nc2ccc(C(=O)c3ncc(CC(=O)O)c4ccccc34)cc2)c1` [Example 73]: the IC50 is less than 50 nM.

Take `CS(=O)(=O)c1ccc(C(=O)Nc2ccc(C(=O)c3ncc(CC(=O)O)c4ccccc34)cc2)cc1` [Example 74]: the IC50 was in the range of 50 to 500 nM.

Regarding `O=C(O)Cc1cnc(C(=O)c2ccc(NC(=O)C3CCCCC3)cc2)c2ccccc12` [Example 76], the IC50 was 50 to 500 nM.

Regarding `O=C(O)Cc1cnc(C(=O)c2ccc(NC(=O)CCC3CCCCC3)cc2)c2ccccc12` [Example 77], the IC50 is less than 50 nM.

Turning to `C/C(=C\c1ccccc1)C(=O)Nc1ccc(C(=O)c2ncc(CC(=O)O)c3ccccc23)cc1` [Example 78], the IC50 is less than 50 nM.

On to `O=C(O)Cc1cnc(C(=O)c2ccc(NC(=O)c3ccc(C(=O)O)cc3)cc2)c2ccccc12` [Example 79], for which the IC50 is no less than 1000 nM.

Regarding `CCCCC(=O)Nc1ccc(C(=O)c2ncc(CC(=O)O)c3ccccc23)cc1` [Example 80], the IC50 was 50 to 500 nM.

Turning to `O=C(O)Cc1cnc(C(=O)c2ccc(NC(=O)C3CCOCC3)cc2)c2ccccc12` [Example 81], the IC50 was no less than 1000 nM.

For `COc1ccc(/C=C/C(=O)Nc2ccc(C(=O)c3ncc(CC(=O)O)c4ccccc34)cc2)cc1` [Example 84], the IC50 is less than 50 nM.

On to `O=C(O)Cc1cnc(C(=O)c2ccc(NC(=O)c3c[nH]c4ccccc34)cc2)c2ccccc12` [Example 85], for which the IC50 is less than 50 nM.

`O=C(O)Cc1cnc(C(=O)c2ccc(NC(=O)c3cnc4ccccc4n3)cc2)c2ccccc12` [Example 86]: the IC50 is 50 to 500 nM.

With `O=C(O)Cc1cnc(C(=O)c2ccc(NC(=O)COc3ccc(Cl)cc3)cc2)c2ccccc12` [Example 87], the IC50 is 50 to 500 nM.

In the case of `O=C(O)Cc1cnc(C(=O)c2ccc(NC(=O)c3csc4ccccc34)cc2)c2ccccc12` [Example 88], the IC50 was less than 50 nM.
